Assay results published in US9249111B2, “Substituted quinoxalines as B-RAF kinase inhibitors” (NEUPHARMA, INC., priority 2011, dated 2016).

Key:
[1] = system: A375 cells; assay: MTT cell growth inhibition assay, A375 cells; format: cell-based; conditions: Homo sapiens, A-375, 72 h compound exposure
Description: (§1) Inhibition of cell growth by compounds was measured using MTT assay (Mosmann, T., Journal of Immunological Methods, 1983, 65, 55-63). Tumor cell lines were purchased from ATCC (American Type Culture Collection, Manassas, Va.). All cell lines were maintained in RPMI 1640 (Hyclone) supplemented with 10% fetal bovine serum (FBS, Hyclone), glutamine (2 mM, Hyclone), and antibiotics (penicillin 100 U/mL and streptomycin 50 μg/mL) at 37° C. in a humidified atmosphere of 5% CO2 in air. Taxol (as a positive control, Sigma) and compounds were dissolved in DMSO (Sigma), and the final concentration of DMSO in the medium was 1%. Tumor cells were plated in 96-well plates at densities of about 4000 cells/well of a 96-well plate and allowed to adhere/grow for 24 h. They were then treated with various concentrations of drug for 72 h. 3-(4,5-Dimethylthiazol-2-yl)-2,5-diphenyltetrazolium bromide (MTT, Sigma) was used to determine the number of viable cells at the time of compound addition and the number of cells remaining after 72 h compound exposure. The number of cells remaining after 72 h was compared to the number of viable cells at the time of compound addition by measuring the absorbance at 570 nm, allowing for the calculation of growth inhibition.
(§2) All concentrations of compounds were tested in triplicate and controls were averaged over 4 wells. IC50 was calculated by plotting the concentration of compound vs the percentage of inhibition in treated wells using GraphPad Prism 5. […] The scale utilized in Table 2 is as follows: […], ++ between 1000 and 5000 nM, and + greater than 5000 nM.

[2] = system: A549 cells; assay: MTT cell growth inhibition assay, A549 cells; format: cell-based; conditions: Homo sapiens, 72 h compound exposure
Description: as §1, §2

[3] = biological target: T1, BRAF (Homo sapiens, UniProt P15056); assay: Z'-LYTE kinase inhibition assay (Invitrogen), BRAF; format: biochemical; conditions: compound at 1 μM; Z'-LYTE method
T1 construct: purchased Invitrogen
T1 sequence (P15056 whole entry): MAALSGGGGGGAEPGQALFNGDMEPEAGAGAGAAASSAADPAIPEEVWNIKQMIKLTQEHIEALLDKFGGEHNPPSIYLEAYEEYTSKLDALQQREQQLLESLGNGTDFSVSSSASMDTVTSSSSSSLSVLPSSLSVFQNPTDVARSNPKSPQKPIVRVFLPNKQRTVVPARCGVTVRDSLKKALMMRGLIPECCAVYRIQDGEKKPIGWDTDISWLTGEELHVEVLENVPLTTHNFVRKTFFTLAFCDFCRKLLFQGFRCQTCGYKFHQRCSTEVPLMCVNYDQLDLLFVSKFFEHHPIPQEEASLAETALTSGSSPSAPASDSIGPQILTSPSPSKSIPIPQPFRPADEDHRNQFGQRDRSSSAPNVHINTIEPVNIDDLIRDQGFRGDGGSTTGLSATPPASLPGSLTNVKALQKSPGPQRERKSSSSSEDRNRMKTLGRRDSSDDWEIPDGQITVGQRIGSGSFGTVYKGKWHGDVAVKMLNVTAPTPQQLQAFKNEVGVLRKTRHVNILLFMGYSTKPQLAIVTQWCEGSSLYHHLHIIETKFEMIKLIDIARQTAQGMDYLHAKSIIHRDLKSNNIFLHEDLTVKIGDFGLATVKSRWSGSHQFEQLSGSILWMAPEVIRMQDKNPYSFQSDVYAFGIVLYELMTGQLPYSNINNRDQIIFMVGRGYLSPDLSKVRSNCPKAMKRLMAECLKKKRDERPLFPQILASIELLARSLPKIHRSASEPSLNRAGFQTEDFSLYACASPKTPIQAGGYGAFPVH
Description: (§3) Inhibitory activities of compounds against BRAF or BRAF V600E were measured by Invitrogen using Z′-LYTE® Method as briefly described in the following.
(§4) 4× Test compounds were dissolved in 1% DMSO. […] ATP solutions were diluted to a 4×ATP working concentration in Kinase Buffer (50 mM HEPES pH 7.5, 0.01% BRIJ-35, 10 mM MgCl2, 1 mM EGTA). Reaction started by 30-second shaking of mixture consisting of 2.5 μL4× test compound, 2.5 μL 2× kinase reaction mixture and 2.5 μL 4×ATP Solution on Bar-coded Corning, low volume NBS, black 384-well plate (Corning Cat. #3676). Then the mixture was incubated for 60-minute at room temperature for the kinase reaction, followed by addition of 5 μL of a 1:1024 dilution of development reagent A and 30-second plate shake. The mixture was then incubated for another 60-minute at room temperature for development reaction. Finally fluorescence was read by plate reader. IC50 was calculated by plotting the concentration of compound vs the percentage of inhibition in treated wells using GraphPad Prism 5.

[4] = biological target: T2, BRAF V600E (Homo sapiens, UniProt P15056, V600E); assay: Z'-LYTE kinase inhibition assay (Invitrogen), BRAF V600E; format: biochemical; conditions: Z'-LYTE method; for inhibition at 1 µM: compound at 1 μM
T2 construct: purchased Invitrogen
T2 sequence (P15056 whole entry V600E): as the sequence (P15056 whole entry) above, with V600E counted along it
Description: as §3, §4

Row | SMILES | IC50 [1] | IC50 [2] | inhibition at 1 µM [3] | inhibition at 1 µM [4] | IC50 ([4]; read-out: IC50 against BRAF V600E)
1 | COc1cnc2ccc(C(=O)c3c(F)ccc(O)c3F)cc2n1 [Compound C10, (2,6-difluoro-3-hydroxyphenyl)(3-methoxyquinoxalin-6-yl)methanone] | 1000 to 5000 nM | 1 to 5 µM |  |  | 
2 | O=C(c1ccc2ncc(Cl)nc2c1)c1c(F)ccc(O)c1F [Compound C05, (3-chloroquinoxalin-6-yl)(2,6-difluoro-3-hydroxyphenyl)methanone] | < 1000 nM | 1 to 5 µM |  |  | 
3 | N#Cc1cnc2ccc(C(=O)c3c(F)ccc(O)c3F)cc2n1 [Compound C09, 7-(2,6-difluoro-3-hydroxybenzoyl)quinoxaline-2-carbonitrile] | 1000 to 5000 nM | 1 to 5 µM |  |  | 
4 | O=C(c1ccc2ncc(-c3cccnc3)nc2c1)c1c(F)ccc(O)c1F [Compound C07, (2,6-difluoro-3-hydroxyphenyl)(3-(pyridin-3-yl)quinoxalin-6-yl)methanone] | 1000 to 5000 nM | 1 to 5 µM |  |  | 

More lines, now with the values ahead:

Row | IC50 [1] | IC50 [2] | inhibition at 1 µM [3] | inhibition at 1 µM [4] | IC50 ([4]; read-out: IC50 against BRAF V600E) | SMILES
5 | 1000 to 5000 nM | 1 to 5 µM | < 30% | 30 to 89% |  | COc1ccc(F)c(C(=O)c2ccc3nccnc3c2)c1F [Compound C04, (2,6-difluoro-3-methoxyphenyl)(quinoxalin-6-yl)methanone]
6 | < 1000 nM | < 1 µM | 30 to 89% | > 89% | < 50 nM | O=C(c1ccc2nccnc2c1)c1c(F)ccc(OCc2ccccc2)c1F [Compound C06, (3-(benzyloxy)-2,6-difluorophenyl)(quinoxalin-6-yl)methanone]
7 | < 1000 nM | 1 to 5 µM |  |  |  | O=C(c1ccc2ncc(-c3ccccc3)nc2c1)c1c(F)ccc(O)c1F [Compound C08, (2,6-difluoro-3-hydroxyphenyl)(3-phenylquinoxalin-6-yl)methanone]
8 | < 1000 nM | 1 to 5 µM |  |  |  | O=C(c1ccc2nccnc2c1)c1c(F)ccc(O)c1F [Compound C03, (2,6-difluoro-3-hydroxyphenyl)(quinoxalin-6-yl)methanone]
9 | > 5000 nM | > 5 µM | 30 to 89% | 30 to 89% |  | O=C(c1ccc2nccnc2c1)c1c(F)ccc(OCc2cccc(Cl)c2)c1F [Compound C02, (3-((3-chlorobenzyl)oxy)-2,6-difluorophenyl)(quinoxalin-6-yl)methanone]
10 | > 5000 nM | > 5 µM | 30 to 89% | 30 to 89% |  | O=C(c1ccc2nccnc2c1)c1c(F)ccc(OCc2cccc(F)c2)c1F [Compound C01, (2,6-difluoro-3-((3-fluorobenzyl)oxy)phenyl)(quinoxalin-6-yl)methanone]
